Laboratory results reported in patent US9890176B2, “Mannose derivatives for treating bacterial infections” (Vertex Pharmaceuticals Incorporated, priority 2013, dated 2018).

System: bacterial strain LF82 binding to the glycoprotein BSA-(Mannose)3
Test: Bacterial Binding Assay (BBA)
Format: cell-based, Escherichia coli
Conditions: read-out: Bacterial Binding Assay IC50
In short: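 Luciferase-tagged E. coli LF82 grown overnight at 37° C without shaking, then added at 2×10^8 bacteria/mL (10^7 per well) to wells coated with 0.5-2 μg/mL BSA-(Man)3 and blocked with 2% BSA. Compound in 0.2% BSA/D-PBS; binding 40-75 min at room temperature. Washed; bound bacteria read by luciferase luminescence; IC50.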

Row | Structure (SMILES) | IC50 [nM]
1 | Cc1cc(C#Cc2ccc(O[C@H]3O[C@H](CO)[C@@H](O)[C@H](O)[C@]3(C)O)c(C)c2)ccc1O[C@H]1O[C@H](CO)[C@@H](O)[C@H](O)[C@]1(C)O [Example 117, (2R,3S,4S,5S,6R)-6-(hydroxymethyl)-3-methyl-2-[2-methyl-4-[2-[3-methyl-4-[(2R,3S,4S,5S,6R)-3,4,5-trihydroxy-6-(hydroxymethyl)-3-methyl-tetrahydropyran-2-yl]oxy-phenyl]ethynyl]phenoxy]tetrahydropyran-3,4,5-triol] | 15 ± 8
2 | Cc1cc(-c2cccc(Cl)c2F)ccc1O[C@H]1O[C@H](CO)[C@@H](O)[C@H](O)[C@]1(C)O [Compound 93] | 215 ± 5
3 | CC(C)c1cc(-c2ccc(O[C@H]3O[C@H](CO)[C@@H](O)[C@H](O)[C@]3(C)O)c(C(C)C)c2)ccc1O[C@H]1O[C@H](CO)[C@@H](O)[C@H](O)[C@]1(C)O [Example 115, (2R,3S,4S,5S,6R)-6-(hydroxymethyl)-2-[2-isopropyl-4-[3-isopropyl-4-[(2R,3S,4S,5S,6R)-3,4,5-trihydroxy-6-(hydroxymethyl)-3-methyl-tetrahydropyran-2-yl]oxy-phenyl]phenoxy]-3-methyl-tetrahydropyran-3,4,5-triol] | 4 ± 0.6
4 | Cc1cc(-c2ccc(Cl)c(Cl)c2)ccc1O[C@H]1O[C@H](CO)[C@@H](O)[C@H](O)[C@]1(C)O [Compound 82] | 110 ± 31
5 | Cc1cc(-c2ccc(O[C@H]3O[C@H](CO)[C@@H](O)[C@H](O)[C@]3(C)O)c(C)c2)ccc1O [Compound 104] | 69 ± 23
6 | Cc1cc(-c2cccc(C(=O)NCCOCCOCCN)c2)ccc1O[C@H]1O[C@H](CO)[C@@H](O)[C@H](O)[C@]1(C)O [Compound 22] | 15 ± 4
7 | Cc1cc(-c2cccc(C(=O)NCC3CCN(C(=O)OC(C)(C)C)CC3)c2)ccc1O[C@H]1O[C@H](CO)[C@@H](O)[C@H](O)[C@]1(C)O [Compound 66] | 11 ± 3
8 | COc1c(F)cccc1-c1ccc(O[C@H]2O[C@H](CO)[C@@H](O)[C@H](O)[C@]2(C)O)c(C)c1 [Compound 90] | 83 ± 3
9 | Cc1cc(-c2cccc(C(=O)N3CCN(C)CC3)c2)ccc1O[C@H]1O[C@H](CO)[C@@H](O)[C@H](O)[C@]1(C)O [Compound 68] | 26 ± 4
10 | C[C@H](O)[C@H]1O[C@H](Oc2ccc(N3CCc4cc([N+](=O)[O-])ccc43)cc2Cl)[C@@H](O)[C@@H](O)[C@@H]1O [compound 28] | 1300
11 | Cc1cc(-c2ccc(F)c(Cl)c2)ccc1O[C@H]1O[C@H](CO)[C@@H](O)[C@H](O)[C@]1(C)O [Compound 92] | 82 ± 15
12 | Cc1cc(-c2cncc(-c3ccc(O[C@H]4O[C@H](CO)[C@@H](O)[C@H](O)[C@]4(C)O)c(C)c3)c2)ccc1O[C@H]1O[C@H](CO)[C@@H](O)[C@H](O)[C@]1(C)O [Example 119, (2R,3S,4S,5S,6R)-6-(hydroxymethyl)-3-methyl-2-[2-methyl-4-[5-[3-methyl-4-[(2R,3S,4S,5S,6R)-3,4,5-trihydroxy-6-(hydroxymethyl)-3-methyl-tetrahydropyran-2-yl]oxy-phenyl]-3-pyridyl]phenoxy]tetrahydropyran-3,4,5-triol] | 0.6 ± 0.2
13 | C[C@@]1(O)[C@@H](Oc2ccc(N3CCc4cc([N+](=O)[O-])ccc43)cc2Cl)O[C@H](CO)[C@@H](O)[C@@H]1O [Example 19, (2R,3S,4S,5S,6R)-2-(2-chloro-4-(5-nitroindolin-1-yl)phenoxy)-6-(hydroxymethyl)-3-methyltetrahydro-2H-pyran-3,4,5-triol] | 13 ± 6
14 | Cc1cc(-c2cccc(C(=O)N[C@@H](CO)C(=O)O)c2)ccc1O[C@H]1O[C@H](CO)[C@@H](O)[C@H](O)[C@]1(C)O [Compound 69] | 30 ± 12
15 | CNC(=O)c1ccc(-c2ccc(Cl)c(O[C@H]3O[C@H](CO)[C@@H](O)[C@H](O)[C@]3(C)O)c2)cc1 [Compound 45] | 116 ± 34
16 | CNC(=O)c1cccc(-c2ccc(O[C@H]3O[C@H]([C@@H](O)C(C)C)[C@@H](O)[C@H](O)[C@@H]3O)c(C)c2)c1 [Compound 30] | > 10000
17 | COc1cc(F)ccc1-c1ccc(O[C@H]2O[C@H](CO)[C@@H](O)[C@H](O)[C@]2(C)O)c(C)c1 [Compound 91] | 92 ± 27
18 | COc1cc(Cl)cc(-c2ccc(O[C@H]3O[C@H](CO)[C@@H](O)[C@H](O)[C@]3(C)O)c(C)c2)c1 [Compound 80] | 55 ± 15
19 | CNC(=O)c1cccc(-c2ccc(O[C@H]3O[C@H](CO)[C@@H](O)[C@H](O)[C@@]3(O)COCCOCc3ccccc3)c(C)c2)c1 [Compound 49] | 280 ± 20
20 | COc1cc(-c2ccc(O[C@H]3O[C@H](CO)[C@@H](O)[C@H](O)[C@]3(C)O)c(OC)c2)ccc1O[C@H]1O[C@H](CO)[C@@H](O)[C@H](O)[C@]1(C)O [Example 109, (2R,3S,4S,5S,6R)-6-(hydroxymethyl)-2-[2-methoxy-4-[3-methoxy-4-[(2R,3S,4S,5S,6R)-3,4,5-trihydroxy-6-(hydroxymethyl)-3-methyl-tetrahydropyran-2-yl]oxy-phenyl]phenoxy]-3-methyl-tetrahydropyran-3,4,5-triol] | 8 ± 4
21 | COC(=O)c1cccc(-c2ccc(O[C@H]3O[C@H](CO)[C@@H](O)[C@H](O)[C@]3(C)O)c(C)c2)c1 [Compound 57] | 17 ± 4

Row | Structure (SMILES) | IC50 [nM]
22 | CNC(=O)c1cccc(-c2ccc(O[C@H]3O[C@H](CO)[C@@H](O)[C@H](O)[C@]3(C)O)c(OC)c2)c1 [Example 17, 3-[3-methoxy-4-[(2R,3S,4S,5S,6R)-3,4,5-trihydroxy-6-(hydroxymethyl)-3-methyl-tetrahydropyran-2-yl]oxy-phenyl]-N-methyl-benzamide] | 27 ± 8
23 | C[C@@]1(O)[C@@H](OCc2ccccc2)O[C@H](CO)[C@@H](O)[C@@H]1O [Compound 37] | > 10000
24 | Cc1cc(-c2cccc(C(=O)N[C@@H](CO)[C@H](C)O)c2)ccc1O[C@H]1O[C@H](CO)[C@@H](O)[C@H](O)[C@]1(C)O [Compound 59] | 20 ± 4
25 | C[C@@]1(O)[C@@H](Oc2ccc(-c3ccc(C(=O)NC4CC4)c(Cl)c3)cc2Cl)O[C@H](CO)[C@@H](O)[C@@H]1O [Compound 54] | 42 ± 7
26 | CNC(=O)c1cccc(-c2ccc(O[C@H]3O[C@H](CO)[C@@H](O)[C@H](O)[C@@]3(O)CO)c(C)c2)c1 [Compound 24] | 19 ± 3
27 | Cc1cc(-c2cc(F)cc(F)c2)ccc1O[C@H]1O[C@H](CO)[C@@H](O)[C@H](O)[C@]1(C)O [Compound 76] | 24 ± 3
28 | C[C@@]1(O)[C@@H](Oc2ccc(-c3ccc(O[C@H]4O[C@H](CO)[C@@H](O)[C@H](O)[C@]4(C)O)c(Cl)c3)cc2Cl)O[C@H](CO)[C@@H](O)[C@@H]1O [Example 107, (2R,3S,4S,5S,6R)-2-[2-chloro-4-[3-chloro-4-[(2R,3S,4S,5S,6R)-3,4,5-trihydroxy-6-(hydroxymethyl)-3-methyl-tetrahydropyran-2-yl]oxy-phenyl]phenoxy]-6-(hydroxymethyl)-3-methyl-tetrahydropyran-3,4,5-triol] | 5 ± 1
29 | Cc1cc(-c2cccc(C(=O)N(CCO)C(CO)(CO)CO)c2)ccc1O[C@H]1O[C@H](CO)[C@@H](O)[C@H](O)[C@]1(C)O [Compound 71] | 8 ± 2
30 | CNC(=O)c1cccc(-c2ccc(O[C@H]3O[C@H](CO)[C@@H](O)[C@H](O)[C@]3(C)O)cc2Cl)c1 [Compound 40] | 220 ± 110
31 | CNC(=O)c1cccc(-c2ccc(Cl)c(O[C@H]3O[C@H](CO)[C@@H](O)[C@H](O)[C@]3(C)O)c2)c1 [Compound 44] | 43 ± 12
32 | Cc1cc(-c2cccc(C(=O)N3CCCC3)c2)ccc1O[C@H]1O[C@H](CO)[C@@H](O)[C@H](O)[C@]1(C)O [Compound 70] | 30 ± 1
33 | Cc1cc(-c2cccc(C(=O)NCCN3CCN(C)CC3)c2)ccc1O[C@H]1O[C@H](CO)[C@@H](O)[C@H](O)[C@]1(C)O [Compound 58] | 13 ± 1
34 | C[C@@]1(O)[C@@H](Oc2ccc(-c3ccc(O[C@H]4O[C@H](CO)[C@@H](O)[C@H](O)[C@]4(C)O)c(C#N)c3)cc2C#N)O[C@H](CO)[C@@H](O)[C@@H]1O [Example 111, 5-[3-cyano-4-[(2R,3S,4S,5S,6R)-3,4,5-trihydroxy-6-(hydroxymethyl)-3-methyl-tetrahydropyran-2-yl]oxy-phenyl]-2-[(2R,3S,4S,5S,6R)-3,4,5-trihydroxy-6-(hydroxymethyl)-3-methyl-tetrahydropyran-2-yl]oxy-benzonitrile] | 6 ± 2
35 | C[C@@]1(O)[C@@H](Oc2ccc(-c3ccc(O[C@H]4O[C@H](CO)[C@@H](O)[C@H](O)[C@]4(C)O)cc3)cc2)O[C@H](CO)[C@@H](O)[C@@H]1O [Example 106, (2R,3S,4S,5S,6R)-6-(hydroxymethyl)-3-methyl-2-[4-[4-[(2R,3S,4S,5S,6R)-3,4,5-trihydroxy-6-(hydroxymethyl)-3-methyl-tetrahydropyran-2-yl]oxyphenyl]phenoxy]tetrahydropyran-3,4,5-triol] | 435 ± 115
36 | CNC(=O)c1cc(-c2ccc(O[C@H]3O[C@H](CO)[C@@H](O)[C@H](O)[C@]3(C)O)c(Cl)c2)ccc1F [Compound 55] | 20 ± 0.5
37 | COc1cc(Cl)ccc1-c1ccc(O[C@H]2O[C@H](CO)[C@@H](O)[C@H](O)[C@]2(C)O)c(C)c1 [Compound 81] | 185 ± 15
38 | Cc1cc(-c2cccc(S(N)(=O)=O)c2)ccc1O[C@H]1O[C@H](CO)[C@@H](O)[C@H](O)[C@]1(C)O [Compound 84] | 10 ± 2
39 | O=[N+]([O-])c1cccc(-c2ccc3c(c2)CC[C@]2(O3)O[C@H](CO)[C@@H](O)[C@H](O)[C@@H]2O)c1 [Compound 34] | 79 ± 31
40 | CNC(=O)c1cccc(-c2ccc(O[C@H]3O[C@H](CO)[C@@H](O)[C@H](O)[C@]3(C)O)cc2)c1 [Example 14, N-methyl-3-[4-[(2R,3S,4S,5S,6R)-3,4,5-trihydroxy-6-(hydroxymethyl)-3-methyl-tetrahydropyran-2-yl]oxyphenyl]benzamide] | 132 ± 44
41 | OC[C@H]1O[C@@]2(CCc3cc(O)ccc3O2)[C@@H](O)[C@@H](O)[C@@H]1O [Example 124, (2R,3′S,4′S,5′S,6′R)-6′-(hydroxymethyl)spiro[chromane-2,2′-tetrahydropyran]-3′,4′,5′,6-tetrol] | 650 ± 550
42 | CNC(=O)c1cc(F)cc(-c2ccc(O[C@H]3O[C@H](CO)[C@@H](O)[C@H](O)[C@]3(C)O)c(Cl)c2)c1 [Compound 56] | 24 ± 0.5
